ChEMBL document CHEMBL5214954, “Identification of PI3K/HDAC Dual-targeted inhibitors with subtype selectivity as potential therapeutic agents against solid Tumors: Building HDAC6 potency in a Quinazolinone-based PI3Kδ-selective template” (Bioorg Med Chem, 2022)

Key:
[1] = target: T1, Phosphatidylinositol 4,5-bisphosphate 3-kinase catalytic subunit delta isoform (Homo sapiens, UniProt O00329); assay: Inhibition of PI3Kdelta (unknown origin) measured by ADP-Glo assay
T1 sequence (O00329 whole entry): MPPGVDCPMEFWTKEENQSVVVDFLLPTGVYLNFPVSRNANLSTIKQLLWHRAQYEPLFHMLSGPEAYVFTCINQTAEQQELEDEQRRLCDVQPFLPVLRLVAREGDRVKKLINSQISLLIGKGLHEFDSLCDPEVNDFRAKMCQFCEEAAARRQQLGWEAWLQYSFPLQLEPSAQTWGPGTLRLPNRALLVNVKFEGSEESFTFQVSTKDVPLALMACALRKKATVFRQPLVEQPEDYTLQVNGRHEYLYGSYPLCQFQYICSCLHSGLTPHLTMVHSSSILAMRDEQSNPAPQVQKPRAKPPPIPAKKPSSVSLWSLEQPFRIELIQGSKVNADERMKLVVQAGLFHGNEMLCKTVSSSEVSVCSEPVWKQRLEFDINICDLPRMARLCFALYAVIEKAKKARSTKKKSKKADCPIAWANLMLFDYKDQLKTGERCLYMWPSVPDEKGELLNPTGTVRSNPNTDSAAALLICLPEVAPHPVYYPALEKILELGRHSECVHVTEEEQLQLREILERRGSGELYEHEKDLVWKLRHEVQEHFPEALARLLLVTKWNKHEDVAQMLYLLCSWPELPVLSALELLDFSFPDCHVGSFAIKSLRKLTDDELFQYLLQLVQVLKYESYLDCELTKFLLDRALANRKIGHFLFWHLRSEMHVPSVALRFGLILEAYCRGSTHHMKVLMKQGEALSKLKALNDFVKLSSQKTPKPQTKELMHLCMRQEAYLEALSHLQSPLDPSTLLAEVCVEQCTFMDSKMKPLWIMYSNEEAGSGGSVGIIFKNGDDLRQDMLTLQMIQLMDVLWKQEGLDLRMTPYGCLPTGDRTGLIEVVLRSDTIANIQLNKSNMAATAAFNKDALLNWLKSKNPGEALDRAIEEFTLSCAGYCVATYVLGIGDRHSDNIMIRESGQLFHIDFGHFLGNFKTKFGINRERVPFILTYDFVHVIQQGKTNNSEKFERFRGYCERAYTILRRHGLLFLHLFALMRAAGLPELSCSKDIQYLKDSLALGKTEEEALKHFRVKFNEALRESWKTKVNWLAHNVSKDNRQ

[2] = target: T2, Protein deacetylase HDAC6 (Homo sapiens, UniProt Q9UBN7)
T2 sequence (Q9UBN7 whole entry): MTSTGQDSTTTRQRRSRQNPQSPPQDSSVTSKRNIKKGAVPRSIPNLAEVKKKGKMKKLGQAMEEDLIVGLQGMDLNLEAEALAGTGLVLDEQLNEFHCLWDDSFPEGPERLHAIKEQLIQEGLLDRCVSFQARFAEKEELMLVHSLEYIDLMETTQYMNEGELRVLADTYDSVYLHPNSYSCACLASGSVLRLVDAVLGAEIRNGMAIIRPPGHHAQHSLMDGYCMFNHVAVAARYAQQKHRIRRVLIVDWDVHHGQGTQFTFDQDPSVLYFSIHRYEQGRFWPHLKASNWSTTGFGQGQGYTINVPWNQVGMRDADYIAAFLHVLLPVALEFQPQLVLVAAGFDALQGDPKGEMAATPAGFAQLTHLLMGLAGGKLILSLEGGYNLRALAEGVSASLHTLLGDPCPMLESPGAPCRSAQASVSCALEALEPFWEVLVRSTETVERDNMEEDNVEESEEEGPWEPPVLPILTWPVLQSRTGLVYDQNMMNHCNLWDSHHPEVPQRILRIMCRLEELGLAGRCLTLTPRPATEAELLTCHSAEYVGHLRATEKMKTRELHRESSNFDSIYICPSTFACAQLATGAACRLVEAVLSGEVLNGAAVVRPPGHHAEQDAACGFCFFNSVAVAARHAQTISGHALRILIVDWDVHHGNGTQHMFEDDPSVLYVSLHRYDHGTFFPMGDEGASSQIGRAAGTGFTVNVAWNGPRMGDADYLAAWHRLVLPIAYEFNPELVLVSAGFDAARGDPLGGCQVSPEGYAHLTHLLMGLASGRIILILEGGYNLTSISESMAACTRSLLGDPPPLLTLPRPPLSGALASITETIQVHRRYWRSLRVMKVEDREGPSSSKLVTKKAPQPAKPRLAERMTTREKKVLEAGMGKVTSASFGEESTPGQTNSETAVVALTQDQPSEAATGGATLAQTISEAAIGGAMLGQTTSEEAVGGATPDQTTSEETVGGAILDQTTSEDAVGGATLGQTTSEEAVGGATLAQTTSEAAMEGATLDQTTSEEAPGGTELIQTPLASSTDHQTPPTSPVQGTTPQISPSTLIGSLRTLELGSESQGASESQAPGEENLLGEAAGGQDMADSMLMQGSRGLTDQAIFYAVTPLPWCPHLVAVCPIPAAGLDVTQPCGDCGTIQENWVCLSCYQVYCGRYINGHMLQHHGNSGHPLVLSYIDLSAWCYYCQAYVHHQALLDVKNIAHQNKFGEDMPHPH
Description: Inhibition of HDAC6 (unknown origin) measured by fluorescence based assay

N#Cc1c(N)nc(N)nc1N1CC2(CC2)C[C@H]1c1nc2cccc(Cl)c2c(=O)n1Cc1ccc(C(=O)NO)s1
IC50 [1]: 2.3 nM
IC50 [2]: 13 nM
